Experimental data taken from patent US8466147B2, “Use of reversine and analogs for treatment of cancer” (Dana-Farber Cancer Institute, Inc., priority 2006, dated 2013).

Columns and labels:
MM cells [1] = test: Anti-MM activity of reversine analog; assay type: cell-based; details: FIG. 14
Method: MTT cell survival assay. Viability of cells treated with reversine, alone or combined with other agents, was assessed by measuring 3-(4,5-dimethylthiazol-2-yl)-2,5-diphenyl tetrasodium bromide (MTT, Chemicon International, Temecula, Calif.) dye absorbance. Cells were pulsed with 1:10 the culture volume of 5 mg/ml MTT to each well for the last 4 hrs of 72 hr cultures, followed by 1.5-3 fold the culture volume of isopropanol containing 0.04N HCl. Absorbance was measured at 570/630 nm using a spectrophotometer (Molecular Devices Corp., Sunnyvale Calif.). Recombinant human IL-6 and IGF (R&D Systems; Minneapolis, Minn.) was used at 10 ng/mL and 50 ng/mL respectively, as indicated. For testing normal PBMCs, healthy donor blood was collected using heparinized tubes, separated by Ficoll (Amersham Biosciences; Sweden) gradient separation and plated at 150,000 cells per well and pre-stimulated, as indicated, with 5 ng/mL PHA (Sigma) for 24 hrs.

[2] = system: tumor cell lines, including myeloma, leukemia, lymphoma and thyroid
Excerpt: Cell lines. ARD, ARH-77, ARK, ARO, ARP-1, BHT101, BHP-10-3, BHP-14-9, BHP-17-10, BHP-18-17, BHP-19-24, BHP2-7, BHP-5, BHP-7, DHL-4, DHL-6, DHL-7, DHL-8, DHL-10, Dox6, EJM, FRO, IM9, INA-6, JJN3, KAT-4, KAT-4B, KAT4C, KAT18, KMS-1, KMS-11, KMS-12BM, KMS-18, KMS-20, KMS-26, KMS-28-BM, KMS-28-PE, KMS-34, KMS-5, L363, LPCL-HO, LRS, MM-AS, MEG-01, MM144, MM-1R, MM-1S, MM1S-Akt, MMSV, Namalwa, NCI-H929, NOP2, NPA, OCI MY1, OCI-MY5, OCI-My7, OPM-1, OPM-2, OPM-6, RPMI8226, S6B45, SKMM2, SW579, SW1736, THLE-3, TK PCL, TT, U266, WM-WSU, WRO, XG1, and ZR-75-1 were grown in either Dulbecco's modified Eagle's medium (DMEM) (BioWhittaker, Walkersville, Md.) or Roswell Park Memorial Institute medium (RPMI) (BioWhittaker) with 100 U/ml penicillin, 100 μg/ml streptomycin and 10% fetal calf serum (FCS) (GIBCO/BRL, Gaithersburg, Md.), unless stated otherwise.
(§1) MTT cell survival assay. Viability of cells treated with reversine, alone or combined with other agents, was assessed by measuring 3-(4,5-dimethylthiazol-2-yl)-2,5-diphenyl […] bromide (MTT, Chemicon International, Temecula, Calif.) dye absorbance. Cells were pulsed with 1:10 the culture volume of 5 mg/ml MTT to each well for the last 4 hrs of 72 hr cultures, followed by 1.5-3 fold the culture volume of isopropanol containing 0.04N HCl. Absorbance was measured at 570/630 nm using a spectrophotometer (Molecular Devices Corp., Sunnyvale Calif.). Recombinant human IL-6 and IGF (R&D Systems; Minneapolis, Minn.) was used at 10 ng/mL and 50 ng/mL respectively, as indicated. For testing normal PBMCs, healthy donor blood was collected using heparinized tubes, separated by Ficoll (Amersham Biosciences; Sweden) gradient separation and plated at 150,000 cells per well and pre-stimulated, as indicated, with 5 ng/mL PHA (Sigma) for 24 hrs.

MM cells [3] = details: combined with dexamethasone (5 nM)
Method: as §1

MM.1S tumor cell line = system: MM.1S tumor cell line
Method: as §1

hepatocytes = details: 1 microM, in vitro
Method: as §1

[4] = system: peripheral blood mononuclear cells (PBMCs)
Method: as §1

[5] = system: primary myeloma tumor specimens from heavily pre-treated patients
Method: as §1

stromal cells = details: 1 microM, in vitro
Method: as §1

MM cell lines = details: reversine 1 μM, washout, then drug-free medium
Method: Cell death commitment assay. The minimum time length of exposure to reversine that is required to commit MM cells to apoptosis was evaluated by incubating cells in 24-well plates with reversine (1 μM) for 1, 2, 4, 8, 16 or 24 hours. At the end of this incubation, the cells were washed 3 times and incubated in drug-free medium for an additional 3 days, resulting in equal length of total incubation for all experimental conditions ([…]), at which point cell survival was quantified by MTT, as above, and expressed as percentage of the value obtained from respective controls.

[6] = system: MM cells (MM.1S, OPM-1 human tumor cells); details: 1 microM reversine
Excerpt: Cell cycle analysis. Cell lines, treated with reversine for 0, 2, 4, 8,16, 24, and 48 hrs were stained using a solution of propidium iodide (Sigma) and RNase A following 70% EtOH fixation.

MM.1S cells = details: 1 microM reversine, 2-48 hr
Method: Immunoblotting analysis. Immunoblotting was performed by scrapping cells (1×10^6), centrifuged briefly and lysed for 30 min on ice in 50 mM Tris-HCl, pH 8.0, containing 120 mM NaCl and 1% Igepal, supplemented with the Complete-TM mixture of proteinase inhibitors. The samples were cleared by centrifugation (14,000 rpm, 30 min, 4° C.) and assessed for protein concentration. SDS-polyacrylamide gel electrophoresis (12%) was performed (30-50 μg of protein per lane) and the proteins were electroblotted onto PVDF membranes. After 1 hour incubation in blocking solution (5% milk in TBST), the membranes were exposed to primary antibody overnight at 4° C. Following washing in TBST, the respective secondary HRP-labeled antibody was added at 1:20,000 dilution for 1 hr at room temperature. The membrane was then washed with TBST for 45-60 min with multiple changes of the wash buffer. Following washing, the protein expression was visualized using the ECL technique. The primary antibodies used for immunoblotting were purchased from Santa Cruz Biotechnology (Santa Cruz, Calif.), Upstate Biotechnologies (Lake Placid, N.Y.) or Cell Signaling (Beverly, Mass.). Secondary antibodies were purchased from (Jackson ImmunoResearch West Grove, Pa.).

various kinases = details: 500 nM
Method: In vitro activity against kinases. Kinase activity was screened using 500 nM of reversine (in 1% DMSO) and ATP using the Invitrogen Z′-LYTE™ kinase assay platform (Invitrogen). In summary, in first reaction the kinase transfers the gamma-phosphate of ATP to a single tyrosine, serine or threonine residue in a synthetic FRET-peptide. In the secondary reaction, a site-specific protease recognizes and cleaves non-phosphorylated FRET-peptides. To calculate kinase activity, the ratio of donor emission to acceptor emission after excitation of the fluorophore at 400 nm was compared.

various phosphatases = details: 500 nM
Method: In vitro activity against phosphatases. In vitro phosphatase activity was screened at 500 nM reversine using the DiFMUP technology (Molecular Probes). Briefly, 6,8-difluoro-4-methylumbelliferyl phosphate substrate is combined with ATP and drug. The removal of the phosphate group on 6,8-difluoro-4-methylumbelliferyl yields a more fluorescent version of the substrate than the non-hydrolyzed form. The amount of fluorescent signal directly corresponds to the level of phosphatase activity.

[7] = system: GFP-luc expressing MM.1R cells; details: 72 hrs, luciferase readout
Method: (§2) Activity against myeloma cells in co-culture with bone marrow stromal cells. Co-culture Stromal cells were plated at a density of 10,000 cells per well in optical 96-well plates and were incubated for 24 hrs to allow for attachment. Tumor cell lines stably expressing luciferase were plated at 1500 cells per well. Cells were treated immediately following plating and incubated for 72 hrs. Luciferin substrate was added to cultures, mixed, and incubated at room temperature. Samples were read using a Luminoskan luminometer (Labsystems, Ramsey, Minn.).

[8] = system: GFP-luc expressing MM.1S cells; details: 72 hrs, luciferase readout
Method: as §2

MR20 myeloma cells = details: 72 hours
Method: Treatment of reversine in the Side Populations of MR20 myeloma cells. MR20 cells were plated at a density of 1×10*5 cells/mL in RPMI media supplemented with Pen/Strep and 10% FBS. Reversine was added to the cells at a range of concentrations, the cells were then incubated for 72 hrs at 37 degrees C. Following the incubation period, the cells were collected and stained with Hoescht, and counter stained with 7-AAD. Reserpine, a inhibitor of the membrane transporter, was added to a sample of control cells to identify the “side population” cells (control). The samples were then analyzed on a BD FACS Aria with a UV laser to excite the Hoescht stain. The samples were first gated on the cellular fraction (by forward and side scatter), then on the viable cells (7-AAD negative), then on the Hoescht-Blue negative Hoescht-Red negative fraction representing the Side Population.

chicken B-cell line DT40 = details: FIG. 13
OPM2 cells = details: oral gavage, 1 mg/kg twice weekly
Excerpt: Anti-myeloma activity in animals. […] Briefly, male (6 to 8-week old) SCID/Beige mice, housed and monitored in the Animal Research Facility of the Dana-Farber Cancer Institute, were irradiated (300 rads) using Cs^137 gamma-irradiator source, and received (24 hrs post-irradiation) tail i.v. injections of 10^6 OPM2 cells suspended in total volume of 200 microL of phosphate buffered saline (PBS) per mouse. Mice were monitored for changes in body weight and signs of infection or paralysis. In accordance with institutional guidelines, mice were sacrificed by CO2 inhalation in the event of paralysis or major compromise in their quality of life. All experimental procedures and protocols had been approved by the Animal Care and Use Committee of the Dana-Farber Cancer Institute. Overall survival (defined as time between i.v. injection of tumor cells and sacrifice or death) was compared in control vs. 1 mg/mg reversine-treated (P.O. twice weekly) mice by Kaplan-Meier method.

With `c1nc2nc(NC3CCCCC3)nc(Nc3ccc(N4CCOCC4)cc3)c2[nH]1` [retreversine] the “anti-MM activity in comparison with reversine” value (MM cells [1]) was “reduced activity”.

`c1nc2nc(Nc3ccc(N4CCOCC4)cc3)nc(NC3CCCCC3)c2[nH]1` [reversine, 2-(4-morpholinoanilino)-6-cyclohexylaminopurine] was tested, and the “concentration with significant anti-tumor activity” value ([2]; in many cases) was ≤ 1 µM, the “anti-tumor effects in tumor cell lines” value ([2]; myeloma, leukemia, lymphoma and thyroid lines, FIG. 1) was “anti-tumor effects in a broad range of tumor cell lines” and the “anti-tumor effect, potency in words” value ([2]; subset of MM cell lines) was “sub-micro molar anti-tumor effect”. The survival rate ([2]; wide variety of tumor cell lines, reversine between 1 and 10 μM, 72 hour exposure) was 0%, the “anti-MM activity of combination” value (MM cells [3]) was “greater than additive” and the “difference in normalized effect with versus without cytokines” value (MM.1S tumor cell line; 10 μM reversine) was “virtually no difference”. For the same molecule, the tumor cell viability (MM.1S tumor cell line; presence or absence of cytokines (IL-6, IGF)) was “dose dependent decrease in tumor cell viability”, the toxicity to hepatocytes (hepatocytes) was “minimal toxicity” and the “toxicity to PBMCs stimulated with phytohaemagglutinin” value ([4]; PHA-stimulated, in vitro) was “limited toxicity”. For the same molecule, the “toxicity to PBMCs” value ([4]; unstimulated, doses as high as 10 microM) was “does not cause major toxicity”, the “dose with anti-MM activity” value [5] was ≤ 1 µM and the “toxicity to stromal cells” value (stromal cells) was “minimal toxicity”. The “treatment time that commits cells to death” value (MM cell lines) was “less than 24 hrs”, the “exposure time after which the sub-G0 fraction increases” value [6] was “more than 16 hr” and the “time of G2 arrest after initial exposure” value [6] was 8 to 16 h. The “B-raf and Akt levels” value (MM.1S cells) was “inhibition of B-raf and Akt levels”, the “apoptosis markers (caspase 3, PARP)” value (MM.1S cells) was “cleavge of caspase 3 and PARP” and the “effect on chaperone proteins Hsp70 and Hsp90” value (MM.1S cells) was “minimal affects”. The “phospho-specific proteins (phospho-Akt, phospho-MEK, phospho-MAPK, phospho-IKB, phospho-p70S6K)” value (MM.1S cells; no increase in total protein levels) was “increased levels”, the “inhibition of kinase activity” value (various kinases) was “inhibition of kinase activity was observed” and the “inhibition of phosphatase activity” value (various phosphatases) was “inhibition of phosphatase activity was not seen”. For the same molecule, the “sensitivity in co-culture with bone marrow stromal cells” value [7] was “increased”, the “sensitivity in co-culture with bone marrow stromal cells” value [8] was “increased” and the “sensitivity of side population (SP) cells versus main population” value (MR20 myeloma cells) was “more sensitive than the main population”. The “percentage of SP cells” value (MR20 myeloma cells; increasing concentrations) was “decreased with increasing doses”, the “sensitivity of syk-expressing versus syk-/- DT40 cells” value (chicken B-cell line DT40) was “more sensitive” and the “survival compared to control mice” value (OPM2 cells) was “Survival was extended”.
